Reference: patent US20260248881A1, “PHARMACEUTICAL COMPOSITION COMPRISING FOXM1 INHIBITOR AND IMMUNE CHECKPOINT INHIBITOR FOR PREVENTING OR TREATING CANCER” (National Cancer Center, priority 2022, published 2026)

Tests used:
Type in all cases: cell-based, human
CD274 (PD-L1) = assay: Semi-quantitative PCR of PD-L1 (CD274) transcript in H1299 and PC9 cells; conditions: TST in the presence of IFN-γ
Experimental: H1299 and PC9 cells purchased from ATCC (Manassas, VA, USA) were cultured in RPMI-1640 medium (#10-040-CV; Corning, New York, NY, USA) supplemented with 10% […] (#35-010-CV; Corning) and penicillin-streptomycin antibiotic cocktail (#15240062; Thermo Fisher Scientific, Waltham, MA, USA) at 37° C. and 5% CO2.
H1299 and PC9 LUAD cells were transfected with 5 nM negative control (NC) or FOXM1 siRNA (siFOXM1) (QIAGEN, Hilden, Germany) using Lipofectamine RNAiMAX (#13778150; Thermo Fisher Scientific). Human FOXM1 isoform b (pFLAG-FOXM1)-expressing plasmid or empty vector (pFLAG-CMV; mock) was transfected into H1299 and PC9 cells using Lipofectamine 2000 reagent (#11668019; Thermo Fisher Scientific) according to the manufacturer's instructions.
Total RNA was extracted and purified using the RNeasy kit (#74004; QIAGEN) according to the manufacturer's protocol. Reverse transcription of mRNA was performed using a PrimeScript 1st Strand CDNA Synthesis Kit (#6110A; TaKaRa Bio, Otsu, Japan). Quantitative PCR was performed using primers specific for the CD274 and FOXM1 genes designed using Primer 3 software. A β-actin gene was used as an internal control group to normalize target gene expression.

H1299 and PC9 cells [1] = assay: Cell proliferation assay (WST-1); conditions: 5 μM TST or siRNA knockdown; 24, 48, and 72 hours; both cell lines
Experimental: H1299 and PC9 cells were grown in 96-well plates, treated with 5 µM TST, or transfected with siFOXM1 at a density of 3,000 cells/well […]. Cell proliferation was recorded at the specified times by adding 4-[3-(4-iodophenyl)-2-(4-nitro-phenyl)-2H-5-tetrazolio]-1,3-benzene sulfonate) (WST-1, #MK400, TaKaRa Bio) at 37° C. for 2 hours, and absorbance was measured at 450 nm. All experiments were performed in quadruplicate.

CD274 promoter = assay: ChIP-PCR of FOXM1 binding to CD274 promoter; conditions: H1299 and PC9; vs respective controls
Experimental: To cross-link proteins to DNA, H1299 and PC9 cells were treated with 0.7% formaldehyde at 37° C. for 10 minutes. Cross-linking was quenched by adding glycine to the culture medium at a final concentration of 0.125 M for 5 minutes. The cells were sonicated using a Bioruptor Next Gen sonicator (Diagenode, Denville, NJ, USA) for 5 minutes in 30 s on/30 s off cycle to obtain ~500 bp DNA fragments. The sonicated cell lysates containing genomic DNA fragments were pre-cleared to eliminate unwanted nonspecific components. ChIP was performed using antibody against FOXM1 (#sc-271746, Santa Cruz Biotechnology) with rotation at 4° C. overnight, followed by various washing steps, reverse cross-linking, and protein digestion with proteinase K (#P2308; Sigma-Aldrich, St. Louis, MO, USA). The immunoprecipitated DNA fragments were purified using a phenol-chloroform method, and the purified DNA pellets were resuspended in TE buffer (pH 8.0) and used for PCR. Primers specifically detecting a FOXM1 binding region were designed using a Primer3 tool for chromatin immunoprecipitation-PCR (ChIP-PCR) (Table 1).

H1299 and PC9 cells [2] = assay: Cell cycle distribution analysis (PI staining, flow cytometry)
Experimental: Both H1299 and PC9 cells were enzymatically dissociated using TrypLE (#12605-010; Thermo Fisher Scientific), collected by centrifugation at 2,000×g for 2 minutes, resuspended in PBS, fixed in 70% ethanol, and stored overnight at 4° C. Fixed cells were pelleted, washed twice with PBS, resuspended in FxCycle propidium iodide (PI)/RNase staining solution (#F10797; Thermo Fisher Scientific), and incubated in the dark at 37° C. for 30 minutes. Flow cytometry was performed using a FACS-LSR Fortessa flow cytometer (BD Biosciences, Santa Clara, CA, USA).

[3] = vs NC siRNA or DMSO-treated group, time-dependent

**Q.** How did the “PD-L1 mRNA expression” value (CD274 (PD-L1)) turn out when thiostrepton [TST] was run?
**A.** concentration-dependent decrease

**Q.** And the cell proliferation (H1299 and PC9 cells [1])?
**A.** decreased in a time-dependent manner

**Q.** What about the “FOXM1 binding to the CD274 promoter” value (CD274 promoter) of the same substance?
**A.** dramatic decrease

**Q.** What about the G2 population (H1299 and PC9 cells [2]; both cell lines, vs DMSO-treated group) of the same substance?
**A.** an increase in the G2 population

**Q.** What about the S phase population (H1299 and PC9 cells [2]; [3]) of the same substance?
**A.** decreased a S phase population

**Q.** What about the sub-G0/G1 population (H1299 and PC9 cells [2]; [3]) of the same substance?
**A.** increased the sub-G0/G1 population
